From US7091346B1, “Purine derivatives and processes for their preparation” (Novartis AG, priority 1995, dated 2006)
Structures can show the parent of a compound that is named as a salt.

First: CCn1cnc2c(Nc3cccc(Cl)c3)nc(NCc3ccccc3)nc21 [Example 10, 2-benzylamino-6-(3-chloro-phenyl-amino)-9-ethyl-9H-purine]
Second: CCn1cnc2c(Nc3cccc(Cl)c3)nc(NCCc3ccccn3)nc21 [Example 16, 2-[2-(2-pyridyl)-ethyl-amino]-6-(3-chloro-phenyl-amino)-9-ethyl-9H-purine]
The melting point of the first is lower: 88 to 90 °C for the first, 152 to 153 °C for the second.

First: CCn1cnc2c(Nc3cccc(Cl)c3)nc(N(C)C3(O)CCCCC3)nc21 [Example 22, 6-(3-chloro-phenyl-amino)-2-([1-hydroxy-cyclohex-1-yl]-methylamino)-9-ethyl-9H-purine]
Second: CCn1cnc2c(Nc3cccc(Cl)c3)nc(N3CCCCC3)nc21 [Example 82, 6-(3-chloro-phenyl-amino)-9-ethyl-2-piperidino-9H-purine]
The melting point of the first is higher: 143 to 145 °C for the first, 126 °C for the second.

First: CC[C@@H](CO)Nc1nc(Nc2cccc(Cl)c2)c2ncn(CC)c2n1 [Example 83, 6-(3-chloro-phenyl-amino)-9-ethyl-2-[(S)-1-hydroxy-but-2-yl-amino]-9H-purine]
Second: CC[C@H](CO)Nc1nc(Nc2cccc(Cl)c2)c2ncn(CC)c2n1 [Example 84, 6-(3-chloro-phenyl-amino)-9-ethyl-2-[(R)-1-hydroxy-but-2-yl-amino)-9H-purine]
The melting point of the first is higher: 203 °C for the first, 200 °C for the second.

First: CCn1cnc2c(Nc3cccc(Cl)c3)nc(NCCCOC)nc21 [Example 12, 2-(3-methoxy-propyl-amino)-6-(3-chloro-phenyl-amino)-9-ethyl-9H-purine]
Second: CCn1cnc2c(Nc3cccc(Cl)c3)nc(NC[C@H](C)O)nc21 [Example 89, 6-(3-chloro-phenyl-amino)-9-ethyl-2-[(S)-2-hydroxy-propylamino]-9H-purine]
The melting point of the first is lower: 93 to 94 °C for the first, 161 °C for the second.

First: COc1cc(Nc2nc(NCCCO)nc3c2ncn3C)cc(OC)c1OC [Example 30, 2-(3-hydroxy-propyl-amino)-6-(3,4,5-trimethoxy-phenyl-amino)-9-methyl-9H-purine]
Second: COc1cccc(Nc2nc(NCCCO)nc3c2ncn3C(C)C)c1 [Example 27, 2-(3-hydroxy-propyl-amino)-6-(3-methoxy-phenyl-amino)-9-isopropyl-9H-purine]
The melting point of the first is higher: 166 to 167 °C for the first, 128 to 129 °C for the second.

Compared with `CCn1cnc2c(Nc3cc(C(F)(F)F)cc(C(F)(F)F)c3)nc(NCCO)nc21` [Example 105, 9-ethyl-2-(2-hydroxy-ethyl-amino)-6-(3,5-di-trifluoromethyl-phenyl-amino)-9H-purine], `CCn1cnc2c(Nc3ccc(N)cc3)nc(NCCO)nc21` [Example 108, 6-(4-amino-phenyl-amino)-9-ethyl-2-(2-hydroxy-ethyl-amino)-9H-purine] is higher in melting point: 202 °C for the first, 210 °C for the second.

Compared with `CCn1cnc2c(Nc3cccc(C(=O)NCCCO)c3C)nc(NCCCO)nc21` [Example 25, 9-ethyl-2-(3-hydroxy-propyl-amino)-6-[3-[(3-hydroxy-propyl)-aminocarbonyl]-2-methyl-phenyl-amino]-9H-purine], `CCn1cnc2c(Nc3cccc(C#N)c3)nc(NCCN)nc21.Cl` is higher in melting point: 138 to 142 °C for the first, 200 °C for the second.

First: CCn1cnc2c(Nc3cccc(Cl)c3)nc(N3CCCC(N)C3)nc21 (stereo not drawn) [Example 66, 2-(3-amino-piperidin-1-yl)-6-(3-chloro-phenyl-amino)-9-ethyl-9H-purine]
Second: CCn1cnc2c(Nc3cccc(Cl)c3)nc(N3CCC4(CC3)OCCO4)nc21 [Example 54, 6-(3-chloro-phenyl-amino)-2-(1,4-dioxa-8-azaspiro[4.5]dec-8-yl)-9-ethyl-9H-purine]
The melting point of the first is higher: 165 °C for the first, 159 to 161 °C for the second.

First: CCn1cnc2c(Nc3ccc(NC(=O)OCc4ccccc4)cc3)nc(NCCO)nc21 [Example 107, 6-(4-benzyloxycarbonylamino-phenyl-amino)-9-ethyl-2-(2-hydroxy-ethyl-amino)-9H-purine]
Second: CC(C)n1cnc2c(Nc3cccc(Cl)c3)nc(NCCN)nc21 (as salt: ammonium) [Example 4, 2-(2-Amino-ethylamino)-6-(3-chloro-phenyl-amino)-9-isopropyl-9H-purine]
The melting point of the first is higher: 148 °C for the first, 55 to 56 °C for the second.

With `CCn1cnc2c(Nc3cccc(Cl)c3)nc(N3C(C)CNCC3C)nc21` (stereo not drawn) [Example 74, 6-(3-chloro-phenylamino)-2-[(2,6-dimethyl)-piperazino]-9-ethyl-9H-purine] the melting point was 183 °C.

For `CCn1cnc2c(Nc3ccc(F)cc3)nc(NCCN)nc21.Cl`, the melting point was > 250 °C.
For `CC(C)n1cnc2c(Nc3ccc(F)cc3)nc(NCCN)nc21.Cl`, the melting point was > 250 °C.
